Values quoted from earlier work as cited in patent US20110052650A1, “POROUS CRYSTALLINE HYBRID SOLID FOR ADSORBING AND RELEASING GAS OF BIOLOGICAL INTEREST” (Centre National De La Recherche Scientifique - CNR S, priority 2008, published 2011).

## S [H2S]
  pKa: 6.8
